Patent US4436751A, “Nitrobenzyl monates antibacterial compounds” (Beecham Group Limited, priority 1980, dated 1984)
In brackets after ≈: the same amount, converted by molar mass. Where two headings read alike, the source gives them in different places.

Assays:
Assay type in all cases: cell-based
M. dispar RCTC 10125 = experiment: Anti-mycoplasmal MIC in vitro, Friis broth agarose (Table 1); settings: 144 h
M. suipneumoniae NB12 = experiment: as above; settings: Mesomycoplasma hyopneumoniae, NB12, 144 h
[1] = system: M. hyosynoviae ATOC 25591; experiment: as above; settings: 144 h
Staph. aureus Russell = experiment: Human bacteria MIC, nutrient agar with chocolated horse blood (Table 3); settings: Staphylococcus aureus
Description: (§1) The values were determined by serial dilutions in nutrient agar with 5% chocolated horse blood after incubations for 18 hours at 37° C.

Strep. faecalis 1 = experiment: as above
Description: as §1

[2] = system: Pasteurella multocida 1633; experiment: as above
Description: as §1

[3] = system: Ps. aeruginosa NCTC 10662; experiment: as above; settings: Pseudomonas aeruginosa
Description: as §1

E. Coli NCTC 10418 [4] = experiment: as above; settings: Escherichia coli
Description: as §1

Bacillus subtilis 6633 = experiment: as above
Description: as §1

P. mirabilis 889 = experiment: as above
Description: as §1

Sarcina lutea 8340 = experiment: as above
Description: as §1

[5] = system: Strep. pyogenes R80/421-A; experiment: as above; settings: Streptococcus pyogenes
Description: as §1

Staph. aureus W2827 = experiment: as above; settings: Staphylococcus aureus
Description: as §1

[6] = system: Corynebacterium xerosis 9755; experiment: as above
Description: as §1

[7] = system: Haemophilus influenzae Q1; experiment: as above
Description: as §1

Staph. aureus Oxford = experiment: as above; settings: Staphylococcus aureus
Description: as §1

K. aerogenes A = experiment: as above; settings: Klebsiella aerogenes
Description: as §1

M. suipneumoniae JF 435 = experiment: Anti-mycoplasmal MIC in vitro, Friis broth agarose (Table 1); settings: Mesomycoplasma hyopneumoniae, JF435, 144 h
M. suipneumoniae OCD 1 = experiment: as above; settings: Mesomycoplasma hyopneumoniae, OCD1, 144 h
E. Coli NCTC 10418 [8] = experiment: Veterinary bacteria MIC, Diagnostic Sensitivity Test Agar (Table 2); settings: Escherichia coli, NCTC10418, 18 h
Description: (§2) The values were determined using a two fold serial dilutions in Diagnostic Sensitivity Test Agar with an inoculum of 10^4 organisms and incubation for 18 hours at 37° C.

Bord. bronchiseptica BO8 = experiment: as above; settings: Bordetella bronchiseptica, BO8, 18 h
Description: as §2

Strep. uberis SPO1 = experiment: as above; settings: Streptococcus uberis
Description: as §2

Past. haemolytica PA5 = experiment: as above; settings: Mannheimia haemolytica
Description: as §2

Bord. bronchiseptica BO9 = experiment: as above; settings: Bordetella bronchiseptica
Description: as §2

Past. multocida PA1 = experiment: as above; settings: Pasteurella multocida
Description: as §2

[9] = system: M. bovigenitalium ATOC 14173; experiment: Anti-mycoplasmal MIC in vitro, Friis broth agarose (Table 1); settings: 144 h
M. hyorhinis ATCC 23234 = experiment: as above; settings: Mesomycoplasma hyorhinis, ATCC23234, 144 h
[10] = Pasteurella multocida, 1633, 18 h
[11] = Corynebacterium xerosis, 9755, 18 h
[12] = Haemophilus influenzae, Q1, 18 h

Compound: C/C(=C\C(=O)OCc1cc([N+](=O)[O-])cc([N+](=O)[O-])c1)CC1OCC(CC2OC2C(C)C(C)O)C(O)C1O (stereo not drawn) [Example 6, 3,5-dinitrobenzyl monate A]
- MIC (M. dispar RCTC 10125): ≤ 0.01 µg/mL
- MIC (M. suipneumoniae NB12): 0.05 µg/mL (≈ 0.0953 µM)
- MIC [1]: 0.025 µg/mL (≈ 0.0477 µM)
- MIC (Staph. aureus Russell; 18 h): 1 µg/mL (≈ 1.91 µM)
- MIC (Strep. faecalis 1; Enterococcus faecalis, 1, 18 h): > 100 µg/mL
- MIC [2, 10]: 0.5 µg/mL (≈ 0.953 µM)
- MIC ([3]; NCTC10662, 18 h): > 100 µg/mL
- MIC (E. Coli NCTC 10418 [4]; NCTC10418, 18 h): 100 µg/mL (≈ 191 µM)
- MIC (Bacillus subtilis 6633; Bacillus subtilis, 6633, 18 h): 0.5 µg/mL (≈ 0.953 µM)
- MIC (P. mirabilis 889; Proteus mirabilis, 889, 18 h): 100 µg/mL (≈ 191 µM)
- MIC (Sarcina lutea 8340; Micrococcus luteus, 8340, 18 h): > 100 µg/mL
- MIC ([5]; R80/421A, 18 h): 0.25 µg/mL (≈ 0.477 µM)
- MIC (Staph. aureus W2827; W2827, 18 h): 1 µg/mL (≈ 1.91 µM)
- MIC [6, 11]: > 100 µg/mL
- MIC [7, 12]: 0.5 µg/mL (≈ 0.953 µM)
- MIC (Staph. aureus Oxford; 18 h): 0.5 µg/mL (≈ 0.953 µM)
- MIC (K. aerogenes A; 18 h): 100 µg/mL (≈ 191 µM)
- MIC (M. suipneumoniae JF 435): 0.05 µg/mL (≈ 0.0953 µM)
- MIC (M. suipneumoniae OCD 1): 0.05 µg/mL (≈ 0.0953 µM)
- MIC (E. Coli NCTC 10418 [8]): 80 µg/mL (≈ 153 µM)
- MIC (Bord. bronchiseptica BO8): 40 µg/mL (≈ 76.3 µM)
- MIC (Strep. uberis SPO1; SPO1, 18 h): 0.07 µg/mL (≈ 0.133 µM)
- MIC (Past. haemolytica PA5; PA5, 18 h): 5 µg/mL (≈ 9.53 µM)
- MIC (Bord. bronchiseptica BO9; BO9, 18 h): 10 µg/mL (≈ 19.1 µM)
- MIC (Past. multocida PA1; PA1, 18 h): 1.25 µg/mL (≈ 2.38 µM)
- MIC [9]: ≤ 0.01 µg/mL
- MIC (M. hyorhinis ATCC 23234): 0.025 µg/mL (≈ 0.0477 µM)

Compound: C/C(=C\C(=O)OCc1cccc([N+](=O)[O-])c1C)CC1OCC(CC2OC2C(C)C(C)O)C(O)C1O (stereo not drawn) [Example 8, 2-methyl-3-nitrobenzyl monate A]
- MIC (M. dispar RCTC 10125; M. dispar RCTC 10125, in vitro, 6 days 37° C., read-out: MIC): 0.05 µg/mL (≈ 0.101 µM)
- MIC (M. suipneumoniae NB12): 0.1 µg/mL (≈ 0.203 µM)
- MIC ([1]; M. hyosynoviae ATOC 25591, in vitro, 6 days 37° C., read-out: MIC): 0.05 µg/mL (≈ 0.101 µM)
- MIC (Staph. aureus Russell; Staph. aureus Russell, nutrient agar 5% chocolated horse blood, 18 hours 37° C., read-out: MIC): 2.5 µg/mL (≈ 5.07 µM)
- MIC (Strep. faecalis 1; Enterococcus faecalis, Strep. faecalis 1, nutrient agar 5% chocolated horse blood, 18 hours 37° C., read-out: MIC): 50 µg/mL (≈ 101 µM)
- MIC ([2]; Pasteurella multocida 1633, nutrient agar 5% chocolated horse blood, 18 hours 37° C., read-out: MIC): 2.5 µg/mL (≈ 5.07 µM)
- MIC ([3]; NCTC10662, Ps. aeruginosa NCTC 10662, nutrient agar 5% chocolated horse blood, 18 hours 37° C., read-out: MIC): > 100 µg/mL
- MIC (E. Coli NCTC 10418 [4]; NCTC10418, E. coli NCTC 10418, nutrient agar 5% chocolated horse blood, 18 hours 37° C., read-out: MIC): > 100 µg/mL
- MIC (Bacillus subtilis 6633; Bacillus subtilis 6633, nutrient agar 5% chocolated horse blood, 18 hours 37° C., read-out: MIC): 0.25 µg/mL (≈ 0.507 µM)
- MIC (P. mirabilis 889; Proteus mirabilis, P. mirabilis 889, nutrient agar 5% chocolated horse blood, 18 hours 37° C., read-out: MIC): > 100 µg/mL
- MIC (Sarcina lutea 8340; Micrococcus luteus, Sarcina lutea 8340, nutrient agar 5% chocolated horse blood, 18 hours 37° C., read-out: MIC): > 100 µg/mL
- MIC ([5]; Strep. pyogenes R80/421-A, nutrient agar 5% chocolated horse blood, 18 hours 37° C., read-out: MIC): 0.25 µg/mL (≈ 0.507 µM)
- MIC (Staph. aureus W2827; Staph. aureus W2827, nutrient agar 5% chocolated horse blood, 18 hours 37° C., read-out: MIC): 2.5 µg/mL (≈ 5.07 µM)
- MIC ([6]; Corynebacterium xerosis 9755, nutrient agar 5% chocolated horse blood, 18 hours 37° C., read-out: MIC): > 100 µg/mL
- MIC ([7]; Haemophilus influenzae Q1, nutrient agar 5% chocolated horse blood, 18 hours 37° C., read-out: MIC): 0.5 µg/mL (≈ 1.01 µM)
- MIC (Staph. aureus Oxford; Staph. aureus Oxford, nutrient agar 5% chocolated horse blood, 18 hours 37° C., read-out: MIC): 2.5 µg/mL (≈ 5.07 µM)
- MIC (K. aerogenes A; K. aerogenes A, nutrient agar 5% chocolated horse blood, 18 hours 37° C., read-out: MIC): > 100 µg/mL
- MIC (M. suipneumoniae JF 435): 0.1 µg/mL (≈ 0.203 µM)
- MIC (M. suipneumoniae OCD 1; M. suipneumoniae OCD 1, in vitro, 6 days 37° C., read-out: MIC): 0.25 µg/mL (≈ 0.507 µM)
- MIC (E. Coli NCTC 10418 [8]): > 80 µg/mL
- MIC (Bord. bronchiseptica BO8): 40 µg/mL (≈ 81 µM)
- MIC (Strep. uberis SPO1; Strep. uberis SPO1, DST Agar, 10^4 organisms, 18 hours 37° C., read-out: MIC): 0.07 µg/mL (≈ 0.142 µM)
- MIC (Past. haemolytica PA5; Past. haemolytica PA5, DST Agar, 10^4 organisms, 18 hours 37° C., read-out: MIC): 10 µg/mL (≈ 20.3 µM)
- MIC (Bord. bronchiseptica BO9; Bord. bronchiseptica BO9, DST Agar, 10^4 organisms, 18 hours 37° C., read-out: MIC): 5 µg/mL (≈ 10.1 µM)
- MIC (Past. multocida PA1; Past. multocida PA1, DST Agar, 10^4 organisms, 18 hours 37° C., read-out: MIC): 1.25 µg/mL (≈ 2.53 µM)
- MIC ([9]; M. bovigenitalium ATOC 14173, in vitro, 6 days 37° C., read-out: MIC): 0.025 µg/mL (≈ 0.0507 µM)
- MIC (M. hyorhinis ATCC 23234): 0.1 µg/mL (≈ 0.203 µM)

Compound: C/C(=C\C(=O)OCc1ccc([N+](=O)[O-])cc1[N+](=O)[O-])CC1OCC(CC2OC2C(C)C(C)O)C(O)C1O (stereo not drawn) [Example 10, 2,4-dinitrobenzyl monate A]
- MIC (M. dispar RCTC 10125): 0.25 µg/mL (≈ 0.477 µM)
- MIC (M. suipneumoniae NB12): 1 µg/mL (≈ 1.91 µM)
- MIC [1]: 0.25 µg/mL (≈ 0.477 µM)
- MIC (Staph. aureus Russell; 18 h): 2.5 µg/mL (≈ 4.77 µM)
- MIC (Strep. faecalis 1; Enterococcus faecalis, 1, 18 h): > 100 µg/mL
- MIC [2, 10]: 2.5 µg/mL (≈ 4.77 µM)
- MIC ([3]; NCTC10662, 18 h): > 100 µg/mL
- MIC (E. Coli NCTC 10418 [4]; NCTC10418, 18 h): > 100 µg/mL
- MIC (Bacillus subtilis 6633; Bacillus subtilis, 6633, 18 h): 0.25 µg/mL (≈ 0.477 µM)
- MIC (P. mirabilis 889; Proteus mirabilis, 889, 18 h): > 100 µg/mL
- MIC (Sarcina lutea 8340; Micrococcus luteus, 8340, 18 h): > 100 µg/mL
- MIC ([5]; R80/421A, 18 h): 0.25 µg/mL (≈ 0.477 µM)
- MIC (Staph. aureus W2827; W2827, 18 h): 2.5 µg/mL (≈ 4.77 µM)
- MIC [6, 11]: > 100 µg/mL
- MIC [7, 12]: 0.5 µg/mL (≈ 0.953 µM)
- MIC (Staph. aureus Oxford; 18 h): 1 µg/mL (≈ 1.91 µM)
- MIC (K. aerogenes A; 18 h): > 100 µg/mL
- MIC (M. suipneumoniae JF 435): 1 µg/mL (≈ 1.91 µM)
- MIC (M. suipneumoniae OCD 1): 1 µg/mL (≈ 1.91 µM)
- MIC (E. Coli NCTC 10418 [8]): > 80 µg/mL
- MIC (Bord. bronchiseptica BO8): 40 µg/mL (≈ 76.3 µM)
- MIC (Strep. uberis SPO1; SPO1, 18 h): 0.312 µg/mL (≈ 0.595 µM)
- MIC (Past. haemolytica PA5; PA5, 18 h): 2.5 µg/mL (≈ 4.77 µM)
- MIC (Bord. bronchiseptica BO9; BO9, 18 h): 5 µg/mL (≈ 9.53 µM)
- MIC (Past. multocida PA1; PA1, 18 h): 2.5 µg/mL (≈ 4.77 µM)
- MIC [9]: 0.025 µg/mL (≈ 0.0477 µM)
- MIC (M. hyorhinis ATCC 23234): 0.5 µg/mL (≈ 0.953 µM)
